Reference: patent US20180177184A1, “ANTIMICROBIAL, INSECTICIDAL AND ACARICIDAL SYSTEM” (UNIVERSIDAD POLITECNICA DE VALENCIA, priority 2015, published 2018)

System: Listeria innocua
Test: Bacterial viability of Listeria innocua, 2 h incubation in tryptone soy broth, CFU counting
Assay type: cell-based
Conditions: L. innocua, about 10^6 CFU/ml, 37° C., concentration of vanillin
Description: To that end, in vitro assays were carried out to determine the bacterial viability of Listeria innocua compared to mesoporous particles functionalized with vanillin as well as free vanillin. […] To that end, different suspensions of particles or free vanillin in culture broth (tryptone soy broth) were prepared, and the microbial inoculum was added thereto to obtain an initial population of about 10^6 CFU/ml. Said suspensions were incubated under orbital stirring (150 rpm) at 37° C. for 2 h. After said period, the serial dilutions were seeded in selective medium and incubated for 48 h, with subsequent counting of the colony forming units (CFUs) and calculation of the percentage of inhibition.

With COc1cc(C=O)ccc1O [free vanillin, vanillin] the “concentration producing complete inhibition of the microorganism” value was 4 mg/mL.
